Measured values reported in ChEMBL document CHEMBL3507680, “University of Dundee, Gates Library screen for HepG2 cell viability”.

Assay: Human HepG2 cell viability assay in 384 well format
Format: toxicity, cell-based
Set-up: dose 125 nL, time 70.5 hour; cytotoxicity at 70.5 h: concentration not given beside the values
Conditions: HepG2 cells, read-out: Inhibition

Row | SMILES | cytotoxicity at 70.5 h
1 | O=c1[nH]ncn1-c1cccc(C(F)(F)F)c1 | 1.41%
2 | CC(=O)Cn1ncc(N2CCOCC2)cc1=O | -0.483%
3 | COc1ccsc1C(=O)NCCN1CCOCC1 | -7.25%
4 | COCCC(=O)N1CCCC1c1nc(C)c2c(n1)N(C)C(=O)CC2 (stereo not given) | -3.97%
5 | Cc1nccc(C2CCCN(S(=O)(=O)N3CCOCC3)C2)n1 (stereo not given) | 19.2%
6 | Cc1cccc(-c2nccnc2C2CCN(C)CC2)c1C | 0.0925%
7 | CN1CCN(c2ncccn2)CC1C(N)=O (stereo not given) | 36.7%
8 | Cc1cccc(CNC(=O)CC2CCN(C(=O)C(C)C)CC2)n1 | 6.37%
9 | CC(C)Nc1n[nH]c2nc(C3CCN(C(=O)c4ccccn4)C3)ccc12 (stereo not given) | 8.59%
10 | CN(C)S(=O)(=O)N1CC(c2ccnc(Nc3ccccn3)n2)C1 | -5.03%
11 | Cn1cc(CN2CCCCC2c2ccc(-c3cnn(C)c3)nc2)cn1 (stereo not given) | -8.29%
12 | CN(C)c1nccc(C2CN(S(C)(=O)=O)C2)n1 | -1.11%
13 | Cc1csc(Nc2cc(C3CN(c4ccncn4)C3)nc(C)n2)n1 | -8.67%
14 | O=C(NCC1CCOCC1)c1cc(-c2cccnc2)c2cnccc2n1 | -8.58%
15 | CCCn1ncc(C(=O)NC(C)c2c(C)nn(CC)c2C)c1C (stereo not given) | -8.47%
16 | COCC(=O)NCc1cnc(C)nc1-c1cn(C)c2ccc(OC)cc12 | -7.48%
17 | COc1ccccc1N1CC(NC(=O)Cn2cc(C(C)C)nn2)CC1=O (stereo not given) | -9.11%
18 | CCNC(=O)C1(Cc2cc(-c3ccccc3)no2)CCCN(C(C)=O)C1 (stereo not given) | 10.5%
19 | Cc1cc(C)n(C2CCN(S(=O)(=O)N3CCOCC3)CC2)n1 | -6.85%
20 | Cc1cc(-c2nccs2)nc(C2CCN(Cc3ccccn3)CC2)n1 | -3.72%
21 | COCCNc1ncc(-c2cccc(OC)c2)c(-c2nccn2C)n1 | -7.42%
22 | CNc1cnc(CC2COCCN(Cc3ccccc3)C2)cn1 (stereo not given) | -2.53%
23 | CNc1cnc(CC2COCCN(Cc3cccc(C)n3)C2)cn1 (stereo not given) | -2.94%
24 | CNc1cc(C2CN(Cc3cccnc3NC)CCO2)nc(C)n1 (stereo not given) | -2.49%

Row | SMILES | cytotoxicity at 70.5 h
25 | CNc1cnc(CC2COCCN(CCOc3ccccc3)C2)cn1 (stereo not given) | -1.63%
26 | COCCN1CCC1c1cc(NC2CCCC2)nc(C)n1 (stereo not given) | -5.31%
27 | O=c1[nH]cc(N2CCCCC2)c(=O)[nH]1 | -3.72%
28 | CNc1ncccc1CN1CCN(C)CC(C(=O)N(C)C)C1 (stereo not given) | 14.6%
29 | CC(=O)N1CCCC(c2nc(N(C)C)ncc2-c2ccccc2)C1 (stereo not given) | 3.58%
30 | CCN(CC)S(=O)(=O)N1C[C@@H](O)[C@H](Oc2cccc(F)c2)C1 | -6.35%
31 | CC(=O)Nc1ccc(S(=O)(=O)N2CCOC(Cn3ccnc3)C2)cc1 (stereo not given) | -4.79%
32 | O=S(=O)(c1ccccc1)N1CCOCC(Cc2cccnc2)C1 (stereo not given) | -3.24%
33 | COCCNC(=O)C1(CCCc2cccnc2)CCCN1C (stereo not given) | 13.5%
34 | CNc1cccc(C2CCN(C(C)=O)CC2)n1 | -5.62%
35 | CCC(=O)N1CCCC(c2nc(N(C)C)ncc2-c2ccc(F)cc2)C1 (stereo not given) | 3.25%
36 | Cc1ncsc1C(=O)N1CCC(O)(Cn2c(C)cc3ccncc32)CC1 | -0.305%
37 | Cc1cc(C(=O)N2CCC(O)(Cn3c(C)cc4ccncc43)CC2)on1 | -0.77%
38 | CN1C[C@@H](C(=O)N2CCOCC2)[C@@]2(CCc3ccccc3C(=O)N2)C1 | -1.75%
39 | O=C(c1cccnc1)N1Cc2ccccc2OCC1Cn1ccnc1 (stereo not given) | 9.81%
40 | Cc1csc2c(C3CCCN(C(=O)CCn4cncn4)C3)nc(C)n12 (stereo not given) | 1.05%
41 | Cc1csc2c(C3CCCN(C(=O)CCn4ccnc4)C3)nc(C)n12 (stereo not given) | 17.3%
42 | Cc1csc2c(C3CCCN(C(=O)CCCn4cncn4)C3)nc(C)n12 (stereo not given) | 2.61%
43 | CC(C(=O)N1CCCC1)n1nc(-c2cccs2)cc(N)c1=O (stereo not given) | 5.25%
44 | CC(C(=O)N1CCOCC1)n1nc(-c2cccs2)cc(N)c1=O (stereo not given) | 2.02%
45 | CCCn1nc(C)c(CN(CCN(C)C)Cc2ccccn2)c1C | 12.9%
46 | CCn1nc(C)c(CN(CCCN(C)C)Cc2ccccn2)c1C | 21.3%
47 | CN(C)c1ncc(I)c(C2CCCCN2C)n1 (stereo not given) | -3.55%
48 | Cn1cc(CN(Cc2ccccn2)Cc2ccccc2Cl)cn1 | -1.3%

Row | SMILES | cytotoxicity at 70.5 h
49 | CN(C)Cc1cnc(C2CN(C(=O)c3ccccc3Cl)CCO2)[nH]1 (stereo not given) | -1.46%
50 | CN1C(=O)CC[C@@H]2N(C(=O)CCc3cccnc3)CCCC[C@@]21C | -1.68%
51 | Cc1nn(C)cc1S(=O)(=O)N(C)[C@@H]1CCC[C@@H](n2ccnc2)[C@@H]1O | 19.1%
52 | CN1CCCC(Cc2nccnc2Cl)CC1 (stereo not given) | -3.4%
53 | CN([C@@H]1CCC[C@@H](n2ccnc2)[C@@H]1O)S(=O)(=O)c1cn(C)cn1 | 19.9%
54 | COC1CCCOC12CCN(C(=O)c1ccc3[nH]nnc3c1)CC2 (stereo not given) | -5.57%
55 | O=c1c(Cc2ccccc2)c(O)ccn1Cc1cccs1 | 23.3%
56 | COc1ccc(SCC2CNc3nc4ccccc4c(=O)n32)cc1 (stereo not given) | 1.56%
57 | O=c1c(Cc2ccccc2)c(O)ccn1CCc1ccccc1 | -3.9%
58 | CC(=O)c1ccc(-c2cc(C(F)(F)F)cc(N(C)C)n2)cc1 | -7.82%
59 | O=C(NC1CC1)c1cc(C(F)(F)F)cc(C(=O)NC2CC2)n1 | 23%
60 | O=C(O)Cc1cn2cc(C(F)(F)F)ccc2n1 | -10.8%
61 | O=c1[nH]c2ncccc2n1C1CCCC1 | -0.61%
62 | CC(O)c1cn(Cc2cccc(C(F)(F)F)c2)nn1 (stereo not given) | -4.44%
63 | CC(O)c1cn(Cc2ccc(Cl)cc2Cl)nn1 (stereo not given) | -7.31%
64 | OC1(CNc2ccc(F)cc2)CCNCC1 | -7.97%
65 | O=C(CC(SC1CCCCC1)C(=O)O)c1ccc(Br)cc1 (stereo not given) | 0.38%
66 | Cc1ccc(NCC2(O)CCNCC2)cc1C | -1.72%
67 | O=C(CN1CCCCC1)Nc1cc(C(F)(F)F)ccc1-n1cccc1 | -9.88%
68 | O=c1c2ccccc2nc2n1C(CSc1ccc(Cl)cc1Cl)CN2 (stereo not given) | 29.6%
69 | CC(=O)c1sc(Nc2ccc(Cl)cn2)nc1C | 31.3%
70 | CC(C)CSCCN1CCCN(S(C)(=O)=O)CC1 | 9.07%
71 | CN(CC(=O)NCC(F)(F)F)C(=O)c1ccc(C(=O)OC(C)(C)C)cc1 | -0.193%
72 | O=S(=O)(c1cc(F)ccc1F)N1CCCC1c1ccncc1 (stereo not given) | -3.85%

Row | SMILES | cytotoxicity at 70.5 h
73 | CN(C(=O)NC1CC1)C1CCN(c2ccc(Cl)cc2)CC1 | -7.5%
74 | CN(C(=O)Nc1ccncc1)C1CCN(c2ccc(Cl)cc2)CC1 | 1.01%
75 | Cn1cc(C2CCCN2C(=O)c2cnc(-c3cccs3)s2)cn1 (stereo not given) | 22.5%
76 | CC1CCc2nc(NS(=O)(=O)c3cnn(C)c3)sc2C1 (stereo not given) | 0.918%
77 | OCc1c(Cl)ncn1-c1ccc(F)cc1 | 2.53%
78 | Cc1ccc(-n2cnc(Cl)c2CO)cc1 | -3.28%
79 | OCc1c(Cl)ncn1-c1ccccc1 | 0.513%
80 | Cc1cccc(-n2cnc(Cl)c2CO)c1 | -0.946%
81 | c1ccc(-c2nc(CCNCc3ccccn3)co2)cc1 | -1.18%
82 | COc1ccc(Br)cc1SCCC(N)=O | -0.68%
83 | Cc1ccccc1C(C#N)NC(=O)CCCOc1cccnc1 (stereo not given) | -0.163%
84 | CN(C(=O)CSc1ncc[nH]1)c1ccccc1 | 31.6%
85 | CC(C)CSCCN1CCN(S(C)(=O)=O)CC1 | 0.763%
86 | Cc1cc(C(=O)NCCc2nc3c(s2)CCCC3)n(C)n1 | -3.4%
87 | CN(CC1CCOC1)c1ncc(Br)cn1 (stereo not given) | -3.89%
88 | CCN(CC)C(=O)CSc1ncc[nH]1 | -8.92%
89 | Cc1cc(Br)cnc1N(C)CC1CCOC1 (stereo not given) | -3.38%
90 | CCOc1nnc(CN(CC)CC(=O)NC(C)C)s1 | -1.99%
91 | CN1CCN(C)c2cc(NC(=O)c3cc[nH]n3)ccc2C1 | 6.77%
92 | COc1ccc(C(C)NCc2cscn2)cc1Cn1cccn1 (stereo not given) | -7.35%
93 | CC(C)(C)c1nc(CN(Cc2ccccc2F)C2CCCCC2)no1 | -8.5%
94 | CC(O)CNC(=O)Nc1ccc(Br)cc1Br (stereo not given) | -3.83%
95 | NC(=O)c1cccc(CS(=O)(=O)CC(O)Cn2cccn2)c1 (stereo not given) | -4.59%
96 | Cc1ccc(S(=O)(=O)Nc2ccc(N3CCSCC3)c(C(=O)O)c2)s1 | -10.2%

Row | SMILES | cytotoxicity at 70.5 h
97 | O=S(=O)(Cc1cccc(Cl)c1)CC(O)Cn1cccn1 (stereo not given) | -5.5%
98 | CC1(C)COCCN1C(=O)c1ccc(Cn2cncn2)cc1 | -9.35%
99 | CC(C)c1nnc(NC(=O)C2CSCN2C(=O)C2CCC2)s1 (stereo not given) | -8.18%
100 | COc1ccccc1Cc1nnc(SCCS(C)(=O)=O)o1 | -7.42%
101 | Cc1nnc(NC(=O)C2CSCN2C(=O)C2CCCC2)s1 (stereo not given) | -3.18%
102 | C[S+]([O-])CCNC(=O)N1CCSC(C)(C)C1 (stereo not given) | -1.1%
103 | CCc1cc2c(N3CCCC(c4cc(C(N)=O)[nH]n4)C3)ncnc2s1 (stereo not given) | -4.85%
104 | O=C(COc1ccccc1Br)N1CCOc2ccncc21 | -3.18%
105 | CC(=O)NCCNC(=O)Nc1ccc(Br)cc1C(C)C | 15.2%
106 | CC(=O)Nc1cc(C(C)(C)C)sc1C#N | -3.4%
107 | Cc1cnn(CC(C)NCc2cccnc2)c1 (stereo not given) | -5.07%
108 | CN1CCOC(CNCC(=O)NCCCc2ccccc2)C1 (stereo not given) | 4.87%
109 | CN(CC(=O)NCC1CCCCC1)S(=O)(=O)c1cccnc1 | -3.39%
110 | Cc1cc(C(=O)NC2CCN(c3nnc(C)c(C)c3C#N)CC2)no1 | -6.5%
111 | Cc1nccc(CNC(=O)NCCC(=O)N2CCCc3ccccc32)n1 | -2.13%
112 | Cc1cc(C(=O)NCCC(=O)N2CCCc3ccccc32)no1 | -4.18%
113 | COc1cc(CNC(=O)COC2CCCCC2)ccc1O | -4.46%
114 | COc1ccc(CN2CCCCC2c2n[nH]cc2-c2cc(C)no2)cc1 (stereo not given) | 11%
115 | CN(C)c1ncc2c(O)nc(C3CCNCC3)cc2n1 | -6.95%
116 | CN(C)c1ncc(I)c(C2CCCN2C)n1 (stereo not given) | 1.48%
117 | CC(C)c1nn(C)cc1CNCc1cccnc1N(C)C | 2.18%
118 | CC(C)c1nn(C)cc1CNCc1ccnc(N(C)C)c1 | -7.83%
119 | CCc1nc(-c2ccnc(N3CCNCC3)n2)no1 | -2.35%
120 | Cc1cc(C)nc(NCCC(=O)NCCn2ccnc2C)n1 | 3.01%
